# Measured values reported in ChEMBL document CHEMBL1201862, “PubChem BioAssay data set” (2004).
# Active and inactive are the calls of the source.
# How the values were obtained:
# [1] = tested on: Streptococcus sp. 'group A'; test: Streptococcus pyogenes SK(-)GAS viability under kanamycin – luminescence, BacTiterGlo, confirmation, counter-screen for streptokinase expression inhibitor project, dose response (AID 1900); assay type: functional, organism-based
# [2] = Counterscreen for IDE inhibitors: Luminescence-based cell-based high throughput dose response assay to identify compounds that are cytotoxic to HEK cells. [Related pubchem assays: 434962 (Primary screen (IDE inhibitors in singlicate)), 449730 (Counterscreen (Cytotoxicity in triplicate)), 435028 (Confirmation (IDE inhibitors in triplicate)) …; assay type: functional; details: HEK293
# Streptokinase A = biological target: T1, Streptokinase A (Streptococcus pyogenes serotype M1, UniProt P10520); test: viability-normalized secreted streptokinase activity reduction – plasminogen activation absorbance, OD405, dose response (AID 1914); assay type: functional, Streptococcus pyogenes M1 GAS;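 note: secreted streptokinase activity via plasminogen activation per viability signal from cell pellet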
# T1 sequence (P10520 whole entry): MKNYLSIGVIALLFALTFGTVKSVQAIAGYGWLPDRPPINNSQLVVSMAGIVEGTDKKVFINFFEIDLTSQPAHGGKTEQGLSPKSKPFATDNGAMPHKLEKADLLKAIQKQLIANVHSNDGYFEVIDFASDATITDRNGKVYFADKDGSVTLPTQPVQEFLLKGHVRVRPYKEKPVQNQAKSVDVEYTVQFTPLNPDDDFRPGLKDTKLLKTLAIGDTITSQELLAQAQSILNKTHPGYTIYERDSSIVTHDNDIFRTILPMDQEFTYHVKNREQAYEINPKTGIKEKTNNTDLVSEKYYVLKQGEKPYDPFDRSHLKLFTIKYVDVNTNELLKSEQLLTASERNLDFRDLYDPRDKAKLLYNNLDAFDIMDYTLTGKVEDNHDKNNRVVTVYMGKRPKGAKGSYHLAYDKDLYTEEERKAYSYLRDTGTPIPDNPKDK
# Insulin-degrading enzyme = biological target: T2, Insulin-degrading enzyme (Homo sapiens, UniProt P14735); test: Dose Response: Fluorescence polarization-based cell-based high throughput dose response assay for inhibitors of insulin-degrading enzyme (IDE). [Related pubchem assays: 434962 (Primary screen (IDE inhibitors in singlicate)), 449730 (Counterscreen (Cytotoxicity in triplicate)), 435028 (Confirmation (IDE inhibitors in triplicate)), 434984 (Summary …; assay type: functional
# T2 sequence (P14735 whole entry): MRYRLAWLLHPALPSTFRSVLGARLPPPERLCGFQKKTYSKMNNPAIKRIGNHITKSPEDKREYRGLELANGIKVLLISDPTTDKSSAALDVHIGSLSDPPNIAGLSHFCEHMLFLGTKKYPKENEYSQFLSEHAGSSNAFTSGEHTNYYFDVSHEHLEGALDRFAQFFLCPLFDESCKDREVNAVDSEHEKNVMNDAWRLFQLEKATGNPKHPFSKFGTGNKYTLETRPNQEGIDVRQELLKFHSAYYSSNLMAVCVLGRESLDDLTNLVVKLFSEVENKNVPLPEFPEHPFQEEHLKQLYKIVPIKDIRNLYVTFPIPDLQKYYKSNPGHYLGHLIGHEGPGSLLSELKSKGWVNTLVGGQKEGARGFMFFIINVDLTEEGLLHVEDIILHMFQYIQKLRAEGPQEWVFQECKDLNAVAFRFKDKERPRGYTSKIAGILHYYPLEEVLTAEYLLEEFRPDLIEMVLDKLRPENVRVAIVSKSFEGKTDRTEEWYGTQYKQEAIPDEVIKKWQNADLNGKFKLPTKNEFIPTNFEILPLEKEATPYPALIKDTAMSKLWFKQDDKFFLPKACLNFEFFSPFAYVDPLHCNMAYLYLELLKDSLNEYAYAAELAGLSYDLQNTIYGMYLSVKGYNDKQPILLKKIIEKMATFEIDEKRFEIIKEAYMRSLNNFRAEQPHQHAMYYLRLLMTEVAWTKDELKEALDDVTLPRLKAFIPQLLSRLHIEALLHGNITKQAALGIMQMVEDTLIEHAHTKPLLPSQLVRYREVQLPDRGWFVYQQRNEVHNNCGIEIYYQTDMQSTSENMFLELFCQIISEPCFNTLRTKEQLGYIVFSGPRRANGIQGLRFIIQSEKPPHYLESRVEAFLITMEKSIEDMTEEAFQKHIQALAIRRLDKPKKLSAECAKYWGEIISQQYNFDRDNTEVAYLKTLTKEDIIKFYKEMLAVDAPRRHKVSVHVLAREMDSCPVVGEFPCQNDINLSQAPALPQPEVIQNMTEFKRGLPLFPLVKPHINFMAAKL
# Streptococcus = test: GAS UMAA2166 growth inhibition – luminescence, BacTiterGlo, counter-screen for streptokinase expression inhibitor project, dose response (AID 1915); assay type: functional, organism-based;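 note: potency for reduction of bacterial viability or growth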
# HeLa = test: viability loss in HeLa cells – cell-based, 24 h, cherry-picked samples, cytotoxicity control, dose response (AID 504726); assay type: functional; details: Homo sapiens;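 note: potency for cytotoxicity as loss of luminescence signal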
# [3] = biological target: Voltage-dependent T-type calcium channel subunit alpha-1H (Homo sapiens, UniProt O95180); assay type: functional;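 note: channel activity triggered by adding a high calcium stimulation buffer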
# Voltage-dependent T-type calcium channel subunit alpha-1H, sequence (O95180 whole entry): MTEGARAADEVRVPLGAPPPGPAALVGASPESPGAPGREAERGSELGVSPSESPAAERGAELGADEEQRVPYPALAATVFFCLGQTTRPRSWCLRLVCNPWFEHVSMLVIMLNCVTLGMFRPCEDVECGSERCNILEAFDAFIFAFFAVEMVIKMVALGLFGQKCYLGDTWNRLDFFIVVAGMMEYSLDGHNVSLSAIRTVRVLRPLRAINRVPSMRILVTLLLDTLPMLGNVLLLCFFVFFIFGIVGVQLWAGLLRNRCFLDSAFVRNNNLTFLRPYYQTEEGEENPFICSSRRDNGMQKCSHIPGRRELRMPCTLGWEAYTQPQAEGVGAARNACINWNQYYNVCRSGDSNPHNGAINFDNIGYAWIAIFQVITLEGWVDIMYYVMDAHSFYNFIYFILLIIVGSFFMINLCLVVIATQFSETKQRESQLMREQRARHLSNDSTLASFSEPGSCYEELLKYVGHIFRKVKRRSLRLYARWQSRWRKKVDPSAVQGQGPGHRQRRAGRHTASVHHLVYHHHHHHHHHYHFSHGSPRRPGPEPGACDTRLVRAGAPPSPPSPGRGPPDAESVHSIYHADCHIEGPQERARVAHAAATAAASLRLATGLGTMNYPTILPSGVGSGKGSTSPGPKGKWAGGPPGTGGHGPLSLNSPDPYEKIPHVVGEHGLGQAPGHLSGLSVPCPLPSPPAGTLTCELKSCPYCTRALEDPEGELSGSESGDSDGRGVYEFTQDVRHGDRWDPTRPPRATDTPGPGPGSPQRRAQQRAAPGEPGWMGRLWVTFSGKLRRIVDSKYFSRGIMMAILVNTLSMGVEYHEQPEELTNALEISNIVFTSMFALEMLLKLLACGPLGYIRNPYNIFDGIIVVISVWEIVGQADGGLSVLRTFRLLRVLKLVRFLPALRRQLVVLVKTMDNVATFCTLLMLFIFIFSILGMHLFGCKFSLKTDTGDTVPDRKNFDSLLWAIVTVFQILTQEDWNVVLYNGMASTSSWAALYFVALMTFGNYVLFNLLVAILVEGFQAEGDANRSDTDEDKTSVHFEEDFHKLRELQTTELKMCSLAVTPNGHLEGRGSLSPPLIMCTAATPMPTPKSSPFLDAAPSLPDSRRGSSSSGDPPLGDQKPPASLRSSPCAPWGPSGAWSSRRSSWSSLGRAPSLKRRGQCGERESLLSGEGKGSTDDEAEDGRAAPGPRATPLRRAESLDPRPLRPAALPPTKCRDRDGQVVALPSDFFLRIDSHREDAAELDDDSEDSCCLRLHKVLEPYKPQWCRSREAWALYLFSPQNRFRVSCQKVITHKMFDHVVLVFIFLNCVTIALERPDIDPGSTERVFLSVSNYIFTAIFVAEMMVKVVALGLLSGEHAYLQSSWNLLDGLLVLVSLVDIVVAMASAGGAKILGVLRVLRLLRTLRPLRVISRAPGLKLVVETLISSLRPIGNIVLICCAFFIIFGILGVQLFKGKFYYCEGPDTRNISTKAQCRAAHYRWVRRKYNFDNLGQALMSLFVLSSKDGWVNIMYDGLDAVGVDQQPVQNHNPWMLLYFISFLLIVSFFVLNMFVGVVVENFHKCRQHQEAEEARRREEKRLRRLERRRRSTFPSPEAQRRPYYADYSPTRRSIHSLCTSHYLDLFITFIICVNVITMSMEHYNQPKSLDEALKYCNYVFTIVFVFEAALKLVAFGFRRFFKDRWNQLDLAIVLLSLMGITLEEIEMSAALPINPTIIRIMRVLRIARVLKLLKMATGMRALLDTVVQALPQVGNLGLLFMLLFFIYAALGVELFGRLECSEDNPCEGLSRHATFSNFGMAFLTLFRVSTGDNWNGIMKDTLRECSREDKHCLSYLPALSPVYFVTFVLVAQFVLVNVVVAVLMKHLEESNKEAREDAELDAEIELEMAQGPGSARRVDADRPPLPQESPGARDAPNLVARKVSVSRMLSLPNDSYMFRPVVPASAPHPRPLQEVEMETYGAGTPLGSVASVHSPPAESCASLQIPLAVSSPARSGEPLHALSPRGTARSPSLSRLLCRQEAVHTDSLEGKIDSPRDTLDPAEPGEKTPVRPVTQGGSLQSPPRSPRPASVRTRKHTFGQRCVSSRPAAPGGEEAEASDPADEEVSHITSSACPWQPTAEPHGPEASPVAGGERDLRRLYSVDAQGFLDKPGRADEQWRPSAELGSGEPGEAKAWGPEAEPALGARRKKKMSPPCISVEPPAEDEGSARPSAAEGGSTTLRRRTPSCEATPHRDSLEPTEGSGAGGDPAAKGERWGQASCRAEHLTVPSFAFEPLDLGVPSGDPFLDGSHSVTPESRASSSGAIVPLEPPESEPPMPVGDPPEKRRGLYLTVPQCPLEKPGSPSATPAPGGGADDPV
# Aspartyl aminopeptidase = biological target: T3, Aspartyl aminopeptidase (Plasmodium falciparum 3D7, UniProt Q8I2J3)
# T3 sequence (Q8I2J3 whole entry): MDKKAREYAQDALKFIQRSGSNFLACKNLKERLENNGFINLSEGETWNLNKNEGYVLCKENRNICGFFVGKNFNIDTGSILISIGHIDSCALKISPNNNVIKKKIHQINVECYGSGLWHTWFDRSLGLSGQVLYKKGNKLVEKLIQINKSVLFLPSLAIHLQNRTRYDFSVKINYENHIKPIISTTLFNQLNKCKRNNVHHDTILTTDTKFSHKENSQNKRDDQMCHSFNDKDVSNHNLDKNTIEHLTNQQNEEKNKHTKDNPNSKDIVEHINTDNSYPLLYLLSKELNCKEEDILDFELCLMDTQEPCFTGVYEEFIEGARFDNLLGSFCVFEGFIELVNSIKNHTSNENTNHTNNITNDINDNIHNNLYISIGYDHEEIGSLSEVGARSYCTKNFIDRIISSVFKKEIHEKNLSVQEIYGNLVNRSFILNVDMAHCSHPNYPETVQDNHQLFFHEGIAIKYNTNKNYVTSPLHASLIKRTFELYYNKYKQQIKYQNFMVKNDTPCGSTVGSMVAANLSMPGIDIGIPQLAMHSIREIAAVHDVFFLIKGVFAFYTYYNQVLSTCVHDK
# Procathepsin L = Procathepsin L (Homo sapiens, UniProt P07711)
# Procathepsin L, sequence (P07711 whole entry): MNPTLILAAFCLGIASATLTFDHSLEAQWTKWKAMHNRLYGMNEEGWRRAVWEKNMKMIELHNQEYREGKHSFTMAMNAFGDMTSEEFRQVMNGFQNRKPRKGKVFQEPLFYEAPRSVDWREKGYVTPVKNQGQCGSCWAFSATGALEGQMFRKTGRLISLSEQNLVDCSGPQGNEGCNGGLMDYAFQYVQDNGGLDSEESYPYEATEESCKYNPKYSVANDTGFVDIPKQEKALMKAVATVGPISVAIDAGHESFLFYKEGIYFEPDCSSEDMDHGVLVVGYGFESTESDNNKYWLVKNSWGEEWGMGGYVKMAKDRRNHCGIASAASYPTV
# [4] = A cytotoxicity screen of small molecule inhibitors of the PhoP region in Salmonella typhi identified in the primary screen. [Related pubchem assays: 1850, 1864, 1985 ]; assay type: functional
# [5] = biological target: T4, Ubiquitin-conjugating enzyme E2 N (Homo sapiens, UniProt P61088); assay type: functional;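 note: Dose-response confirmation in a TR-FRET assay detecting UBC13-driven polyubiquitin chain formation, inhibition measured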
# T4 sequence (P61088 whole entry): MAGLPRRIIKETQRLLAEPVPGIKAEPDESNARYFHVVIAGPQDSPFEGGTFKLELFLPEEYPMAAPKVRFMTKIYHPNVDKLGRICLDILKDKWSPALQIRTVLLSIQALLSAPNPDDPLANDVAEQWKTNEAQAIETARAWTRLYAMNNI
# [6] = biological target: T5, Microphthalmia-associated transcription factor (Homo sapiens, UniProt O75030); test: reducers of TRPM1 reporter luminescence, concentration series – cell-based, SK-MEL-5, cherry-picked, set 3, MITF inhibitor project, dose response (AID 493073); assay type: functional;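 note: SK-MEL-5 melanoma cells with luciferase driven by the MITF target TRPM1 promoter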
# T5 sequence (O75030 whole entry): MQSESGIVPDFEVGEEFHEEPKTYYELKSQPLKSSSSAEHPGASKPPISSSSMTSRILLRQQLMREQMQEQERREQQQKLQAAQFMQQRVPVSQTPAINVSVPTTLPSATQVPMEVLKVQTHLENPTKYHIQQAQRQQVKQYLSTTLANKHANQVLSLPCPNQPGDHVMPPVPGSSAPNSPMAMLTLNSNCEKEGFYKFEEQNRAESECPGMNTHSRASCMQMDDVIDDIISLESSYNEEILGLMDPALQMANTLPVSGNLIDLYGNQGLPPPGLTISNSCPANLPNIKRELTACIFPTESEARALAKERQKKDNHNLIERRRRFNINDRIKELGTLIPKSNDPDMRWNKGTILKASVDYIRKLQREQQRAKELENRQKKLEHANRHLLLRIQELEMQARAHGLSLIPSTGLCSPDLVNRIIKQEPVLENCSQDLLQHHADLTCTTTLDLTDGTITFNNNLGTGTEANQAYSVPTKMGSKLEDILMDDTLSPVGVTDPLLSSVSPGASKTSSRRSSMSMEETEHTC
# [7] = biological target: T6, Replicative DNA helicase DnaB (Mycobacterium tuberculosis, UniProt P9WMR3); test: DnaB intein splicing inhibitors, dose response, biochemical, cell-free fluorescence (AID 449749); assay type: functional
# T6 sequence (P9WMR3 whole entry): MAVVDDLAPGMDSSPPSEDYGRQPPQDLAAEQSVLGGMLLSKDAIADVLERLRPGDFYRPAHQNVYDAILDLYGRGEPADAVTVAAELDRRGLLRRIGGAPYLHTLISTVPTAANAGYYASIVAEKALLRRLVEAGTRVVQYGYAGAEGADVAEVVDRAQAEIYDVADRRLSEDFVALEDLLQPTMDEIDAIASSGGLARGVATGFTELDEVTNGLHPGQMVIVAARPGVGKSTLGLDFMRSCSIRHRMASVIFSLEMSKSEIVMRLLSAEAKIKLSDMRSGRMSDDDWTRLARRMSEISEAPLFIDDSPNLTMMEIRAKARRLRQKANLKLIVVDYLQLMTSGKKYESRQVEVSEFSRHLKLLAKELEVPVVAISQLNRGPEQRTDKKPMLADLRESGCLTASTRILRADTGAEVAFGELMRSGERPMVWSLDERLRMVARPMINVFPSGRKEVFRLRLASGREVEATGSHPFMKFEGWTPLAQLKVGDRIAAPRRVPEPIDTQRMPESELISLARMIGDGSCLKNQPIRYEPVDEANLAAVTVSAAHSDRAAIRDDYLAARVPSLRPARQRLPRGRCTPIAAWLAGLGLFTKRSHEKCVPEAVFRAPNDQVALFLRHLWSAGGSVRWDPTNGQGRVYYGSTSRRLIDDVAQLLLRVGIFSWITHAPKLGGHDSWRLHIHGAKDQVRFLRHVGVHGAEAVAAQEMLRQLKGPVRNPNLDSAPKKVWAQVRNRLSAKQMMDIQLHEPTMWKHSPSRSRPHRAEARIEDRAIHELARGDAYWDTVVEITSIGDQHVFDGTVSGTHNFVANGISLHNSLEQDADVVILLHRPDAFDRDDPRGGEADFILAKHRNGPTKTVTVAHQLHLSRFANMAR
# Protein RecA = biological target: T7, Protein RecA (Mycobacterium tuberculosis, UniProt P9WHJ3); test: Fluorescence Cell-Free Homogeneous Dose Retest to Identify Inhibitors of RecA-Intein Splicing Activity. [Related pubchem assays (depositor defined):AID2097, AID2223, AID489010, AID492950]; assay type: functional
# T7 sequence (P9WHJ3 whole entry): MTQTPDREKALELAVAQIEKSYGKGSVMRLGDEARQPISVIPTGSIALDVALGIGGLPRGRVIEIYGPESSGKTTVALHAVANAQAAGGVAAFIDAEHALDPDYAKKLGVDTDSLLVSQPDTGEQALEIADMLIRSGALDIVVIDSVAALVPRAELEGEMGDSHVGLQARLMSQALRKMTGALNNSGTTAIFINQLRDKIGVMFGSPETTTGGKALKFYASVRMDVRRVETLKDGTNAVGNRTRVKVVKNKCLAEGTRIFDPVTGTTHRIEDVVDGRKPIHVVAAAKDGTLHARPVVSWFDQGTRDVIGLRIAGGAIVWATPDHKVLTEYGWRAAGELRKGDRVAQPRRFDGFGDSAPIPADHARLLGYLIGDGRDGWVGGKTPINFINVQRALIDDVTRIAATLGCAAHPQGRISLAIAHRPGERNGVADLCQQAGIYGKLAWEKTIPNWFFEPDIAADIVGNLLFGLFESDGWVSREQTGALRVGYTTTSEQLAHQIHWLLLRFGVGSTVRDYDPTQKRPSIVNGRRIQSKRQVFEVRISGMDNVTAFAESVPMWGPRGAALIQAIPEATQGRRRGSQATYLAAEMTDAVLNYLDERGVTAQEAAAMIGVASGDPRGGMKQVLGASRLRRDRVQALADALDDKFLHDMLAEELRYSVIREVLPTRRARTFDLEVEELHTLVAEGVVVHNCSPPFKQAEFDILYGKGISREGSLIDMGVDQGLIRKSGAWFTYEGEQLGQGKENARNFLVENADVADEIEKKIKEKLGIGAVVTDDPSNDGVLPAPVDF
# [8] = biological target: Photoreceptor-specific nuclear receptor (Homo sapiens, UniProt Q9Y5X4); assay type: functional;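 note: potency for compounds that break the NR2E3 corepressor complex and count as activators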
# Photoreceptor-specific nuclear receptor, sequence (Q9Y5X4 whole entry): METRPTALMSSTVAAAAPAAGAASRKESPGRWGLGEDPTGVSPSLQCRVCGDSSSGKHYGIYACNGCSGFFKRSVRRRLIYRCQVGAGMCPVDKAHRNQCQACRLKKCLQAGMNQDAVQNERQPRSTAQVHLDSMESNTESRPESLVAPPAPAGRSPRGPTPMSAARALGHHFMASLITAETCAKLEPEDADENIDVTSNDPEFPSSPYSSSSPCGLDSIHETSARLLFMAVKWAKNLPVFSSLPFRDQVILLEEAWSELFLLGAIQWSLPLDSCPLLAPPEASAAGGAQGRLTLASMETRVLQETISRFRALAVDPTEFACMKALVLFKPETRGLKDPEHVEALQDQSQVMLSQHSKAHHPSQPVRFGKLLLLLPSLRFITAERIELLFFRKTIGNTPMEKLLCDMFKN
# [9] = biological target: Peroxisome proliferator-activated receptor gamma/Nuclear receptor corepressor 2 (Homo sapiens, UniProt P37231+Q9Y618); assay type: functional
smiles,measurement,setting,value
Cc1ccc(/C=C/C(=O)NC(=S)Nc2ccc(S(=O)(=O)Nc3cc(C)on3)cc2)cc1,EC50,[1],9.56 µM (active)
same,IC50,[2],> 55.7 µM (not active)
same,EC50,Streptokinase A,27.1 µM (inconclusive)
same,IC50,Insulin-degrading enzyme,9.71 µM (active)
same,EC50,Streptococcus,62.4 µM (active)
O=C1c2ccccc2C(=O)N1Cc1ccc2c(c1)OCO2,AC50,HeLa,42.5 µM (active)
O=C(Nc1ccc(S(=O)(=O)N2CCc3ccccc3C2)cc1)C1CCCO1 (configuration not stated),EC50,[3],3.27 µM (active)
COc1ccc(NC(=O)NNC(=O)CCc2ccc(O)c(O)c2)cc1OC,IC50,Aspartyl aminopeptidase,2.51 µM (active)
same,IC50,Procathepsin L,> 59.6 µM (not active)
Cc1cccc(N2CCN(C(=O)c3cccc(N4C(=O)C5C6C=CC(C6)C5C4=O)c3)CC2)c1C (configuration not stated),IC50,[2],17.4 µM (not active)
same,IC50,Insulin-degrading enzyme,6.73 µM (active)
CCCCCC(=O)NC(=S)NNC(=O)CC,EC50,[4],> 50 µM (active)
COc1cc(C(=O)Nc2ccc3c(c2)OCCO3)ccc1OC(C)C,EC50,[4],> 50 µM (active)
CN(Cc1ccccc1)C(=O)CCSc1nc(-c2ccc3c(c2)OCO3)cc(C(F)(F)F)n1,EC50,[3],4.53 µM (active)
same,IC50,[5],> 20 µM (inactive)
CC1=NNC(=O)/C1=C\c1cn(-c2ccccc2)nc1-c1ccc(F)cc1,IC50,Aspartyl aminopeptidase,0.71 µM (active)
same,IC50,Procathepsin L,> 59.6 µM (not active)
same,AC50,[6],6.52 µM (active)
same,AC50,[7],3.69 µM (active)
same,EC50,Protein RecA,1.35 µM (active)
CCOc1ccccc1NC(=O)CSc1nc(N)c(C#N)cc1C#N,IC50,[8],> 39.8 µM (not active)
same,IC50,[9],3.03 µM (active)
